Assay results from patent US8119563B2, “N-substituted azacycles” (FMC Corporation, priority 2003, dated 2012).

System: tobacco budworm (Heliothis virescens [Fabricius])
Test: surface-treated diet test, insecticidal activity against tobacco budworm
Type: in vivo
Set-up: mortality: concentration or dose not given beside the values
Conditions: 0.25 millimoles of candidate insecticide on the surface of the diet, second instar larvae, five-day exposure; for Percent Mortality / mortality: compared to total number of insects infested; for Percent Growth Inhibition / pest or weed control at 0.25 mmol/well: inhibition of insect weight relative to untreated controls; for mortality / pest or weed control at 0.25 mmol/well: Heliothis virescens, 120 h; for mortality: read-out: Percent Mortality; for pest or weed control at 0.25 mmol/well: read-out: Percent Growth Inhibition
Experimental: Candidate insecticides were evaluated for activity against the tobacco budworm (Heliothis virescens [Fabricius]) in a surface-treated diet test.
In this test one mL of molten (65-70° C.) wheat germ-based artificial diet was pipetted into each well of a four by six (24 well) multi-well plate (ID# 430345-15.5 mm dia.×17.6 mm deep; Corning Costar Corp., One Alewife Center, Cambridge, Mass. 02140). The diet was allowed to cool to ambient temperature before treatment with candidate insecticide.
For a determination of insecticidal activity, solutions of the candidate insecticides were prepared for testing using a Packard 204DT Multiprobe® Robotic System (Packard Instrument Company, 800 Research Parkway, Meriden, Conn. 06450), in which the robot first diluted a standard 50 millimolar DMSO solution of candidate insecticide with a 1:1 water/acetone solution (V/V) in a ratio of 1:7 stock solution to water/acetone. The robot subsequently pipetted 40 microliters of the so-prepared solution onto the surface of the diet in each of three wells in the 24 multi-well plate. The process was repeated with solutions of seven other candidate insecticides. Once treated, the contents of the multi-well plate were allowed to dry, leaving 0.25 millimoles of candidate insecticide on the surface of the diet, or a concentration of 0.25 millimolar. Appropriate untreated controls containing only DMSO on the diet surface were also included in this test.
For evaluations of the insecticidal activity of a candidate insecticide at varying rates of application, the test was established as described above using sub-multiples of the standard 50 millimolar DMSO solution of candidate insecticide. For example, the standard 50 millimolar solution was diluted by the robot with DMSO to give 5, 0.5, 0.05, 0.005, 0.0005 millimolar, or more dilute solutions of the candidate insecticide. In these evaluations there were six replicates of each rate of application placed on the surface of the diet in the 24 multi-well plate, for a total of four rates of application of candidate insecticide in each plate.
In each well of the test plate was placed one second instar tobacco budworm larvea, each weighing approximately five milligrams. After the larvae were placed in each well, the plate was sealed with clear polyfilm adhesive tape. The tape over each well was perforated to ensure an adequate air supply. The plates were then held in a growth chamber at 25° C. and 60% relative humidity for five days (light 14 hours/day).
After the five-day exposure period insecticidal activity for each rate of application of candidate insecticide was assessed as percent inhibition of insect weight relative to the weight of insects from untreated controls, and percent mortality when compared to the total number of insects infested.
The test compounds of formula I are identified by numbers that correspond to those in Table 1.

| SMILES | Percent Mortality | Percent Growth Inhibition | mortality | pest or weed control at 0.25 mmol/well |
| --- | --- | --- | --- | --- |
| CCOC(C)C(=O)[O-].CCON=Cc1ccc(C[N+]2(O)CCC(O)(C(c3ccc(OC(F)(F)F)cc3)c3ccc(OC(F)(F)F)cc3)CC2)cc1 (centres unmarked) [Compound 484] | 100% | 100% |  |  |
| Cn1nnc(-c2ccc(C[N+]3([O-])CCC(O)(C(O)(c4ccc(OC(F)(F)F)cc4)c4ccc(OC(F)(F)F)cc4)CC3)cc2)n1 (centres unmarked) [Compound 122] | 100% | 100% |  |  |
| O=C(O)CC(O)(CC(=O)O)C(=O)[O-].OC1(C(c2ccc(OC(F)(F)F)cc2)c2ccc(OC(F)(F)F)cc2)CC[N+](O)(Cc2ccc(Oc3ccccn3)cc2)CC1 (centres unmarked) [Compound 504] | 100% | 100% |  |  |
| CCCOC(=O)Nc1ccc(C[N+]2([O-])CCC(O)(C(c3ccc(C(F)(F)F)cc3)c3ccc(C(F)(F)F)cc3)CC2)cc1 (centres unmarked) [Compound 390] | 100% | 100% |  |  |
| OC1(C(c2ccc(OC(F)(F)F)cc2)c2ccc(OC(F)(F)F)cc2)CCN(Cc2ccc(OCC3CC3)cc2)CC1 [Compound 315] | 100% | 100% |  |  |
| OC1(C(c2ccc(OC(F)(F)F)cc2)c2cc(Cl)ccc2Cl)CCN(Cc2ccc(Oc3ccccn3)cc2)CC1 (centres unmarked) [Compound 443] | 100% | 100% |  |  |
| CC(=O)NCC1(C(c2ccc(C(F)(F)F)cc2)c2ccc(C(F)(F)F)cc2)CC[N+]([O-])(Cc2ccc(Oc3ncccn3)cc2)CC1 (centres unmarked) [Compound 466] | 17% | 100% |  |  |
| CCCOC(=O)Nc1ccc(C[N+]2([O-])CCC(O)(C(c3ccc(OC(F)(F)F)cc3)c3ccc(OC(F)(F)F)cc3)CC2)cc1 (centres unmarked) [Compound 387] | 100% | 100% |  |  |
| OC1(C(c2ccc(OC(F)(F)F)cc2)c2ccc(Cl)c(Cl)c2)CCN(Cc2ccc(Oc3ccccn3)cc2)CC1 (centres unmarked) [Compound 441] | 100% | 100% |  |  |
| O=C(Nc1ccc(Cl)cc1)Oc1ccc(CN2CCC(O)(C(c3ccc(OC(F)(F)F)cc3)c3ccc(OC(F)(F)F)cc3)CC2)cc1 [Compound 324] | 33% | 100% |  |  |
| [O-][N+]1(Cc2ccc(Oc3ccccn3)cc2)CCC(O)(C(O)(c2ccc(OC(F)(F)F)cc2)c2ccc(OC(F)(F)F)cc2)CC1 (centres unmarked) [Compound 421] | 100% | 100% |  |  |
| [O-][N+]1(Cc2ccc(Oc3ccccn3)cc2)CCC(O)(C(c2ccc(OC(F)(F)F)cc2)c2ccc(Cl)cc2Cl)CC1 (centres unmarked) [Compound 454] | 100% | 100% |  |  |
| CC1(C)[C@@H]2CCC1(CS(=O)(=O)[O-])C(=O)C2.CCON=Cc1ccc(C[N+]2(O)CCC(O)(C(c3ccc(OC(F)(F)F)cc3)c3ccc(OC(F)(F)F)cc3)CC2)cc1 (centres unmarked) [Compound 490] | 100% | 100% |  |  |
| [O-][N+]1(CCc2ccc(Cl)cc2)CCC(O)(C(c2ccc(OC(F)(F)F)cc2)c2ccc(OC(F)(F)F)cc2)CC1 (centres unmarked) [Compound 479] | 100% | 100% |  |  |
| [O-][N+]1(Cc2ccc(Oc3ncccn3)cc2)CCC(O)(C(c2ccc(C(F)(F)F)cc2)c2ccc(C(F)(F)F)cc2)CC1 (centres unmarked) [Compound 120] | 100% | 100% |  |  |
| OC1(C(c2ccccc2)c2ccc(OC(F)(F)F)cc2)CCN(Cc2ccc(Oc3ccccn3)cc2)CC1 (racemic) [Compound 288] | 100% | 100% |  |  |

| SMILES | Percent Mortality | Percent Growth Inhibition | mortality | pest or weed control at 0.25 mmol/well |
| --- | --- | --- | --- | --- |
| [N-]=[N+]=NCC1(C(c2ccc(C(F)(F)F)cc2)c2ccc(C(F)(F)F)cc2)CC[N+]([O-])(Cc2ccc(OCC3CC3)cc2)CC1 (centres unmarked) [Compound 467] | 50% | 100% |  |  |
| CC(C)OC(=O)c1ccc(C[N+]2([O-])CCC(O)(C(c3ccc(C(F)(F)F)cc3)c3ccc(C(F)(F)F)cc3)CC2)cc1 (centres unmarked) [Compound 407] | 100% | 100% |  |  |
| CCOCON=Cc1ccc(C[N+]2([O-])CCC(O)(C(c3ccc(OC(F)(F)F)cc3)c3ccc(OC(F)(F)F)cc3)CC2)cc1 (centres unmarked) [Compound 337] | 100% | 100% |  |  |
| OC1(C(c2ccc(OC(F)(F)F)cc2)c2ccc(OC(F)(F)F)cc2)CCN(CCCCOc2ccc(Cl)cc2)CC1 [Compound 476] | 67% | 100% |  |  |
| CCCCCCCC/C=C/CCCCCCCC(=O)[O-].OC1(C(c2ccc(OC(F)(F)F)cc2)c2ccc(OC(F)(F)F)cc2)CC[N+](O)(Cc2ccc(Oc3ccccn3)cc2)CC1 (centres unmarked) [Compound 513] | 100% | 100% |  |  |
| [O-][N+]1(Cc2ccc(C3OCCCO3)cc2)CCC(O)(C(c2ccc(OC(F)(F)F)cc2)c2ccc(OC(F)(F)F)cc2)CC1 (centres unmarked) [Compound 370] | 100% | 100% |  |  |
| OC1(C(c2ccc(C(F)(F)F)cc2)c2ccc(F)c(F)c2)CCN(Cc2ccc(Oc3ncccn3)cc2)CC1 (centres unmarked) [Compound 17] | 83% | 100% |  |  |
| OC1(C(c2ccc(OC(F)(F)F)cc2)c2ccc(OC(F)(F)F)cc2)CCN(Cc2ccc(Oc3ncccn3)cc2)CC1 [Compound 19, 4-{bis[4-(trifluoromethoxy)phenyl]methyl}-1-[(4-pyrimidin-2-yloxyphenyl)methyl]piperidin-4-ol] |  |  | 100% | 100% |
| CCCOc1ccc(CN2CCC(O)(C(O)(c3ccc(C(F)(F)F)cc3)c3ccc(C(F)(F)F)cc3)CC2)cc1 [Compound 92] | 100% | 100% |  |  |
| CC(O)c1ccc(C(c2ccc(OC(F)(F)F)cc2)C2(O)CCN(Cc3ccc(Oc4ccccn4)cc3)CC2)cc1 (mixture of isomers) [Compound 287] | 100% | 100% |  |  |
| [O-][N+]1(Cc2ccc(Oc3ccccn3)cc2)CCC2(CC1)OC2(c1ccc(OC(F)(F)F)cc1)c1ccc(OC(F)(F)F)cc1 (centres unmarked) [Compound 431] | 100% | 100% |  |  |
| N#Cc1cccnc1Oc1ccc(CN2CCC(O)(C(c3ccc(OC(F)(F)F)cc3)c3ccc(OC(F)(F)F)cc3)CC2)cc1 [Compound 281] | 100% | 100% |  |  |
| CCOC(=O)C1(C(Cl)(c2ccc(C(F)(F)F)cc2)c2ccc(C(F)(F)F)cc2)CCN(Cc2ccc(Oc3ccccn3)cc2)CC1 [Compound 195, ethyl 4-{bis[4-(trifluoromethyl)phenyl]chloromethyl}-1-[(4-(2-pyridyloxy)phenyl)methyl]piperidine-4-carboxylate] |  |  | 100% | 100% |
| CCOC(=O)COc1ccc(CN2CCC(O)(C(c3ccc(OC(F)(F)F)cc3)c3ccc(OC(F)(F)F)cc3)CC2)cc1 [Compound 279] | 83% | 100% |  |  |
| CON=C(Cl)c1ccc(C[N+]2(O)CCC(O)(C(c3ccc(OC(F)(F)F)cc3)c3ccc(OC(F)(F)F)cc3)CC2)cc1.O=C(O)CC(O)(CC(=O)O)C(=O)[O-] (centres unmarked) [Compound 501] | 100% | 100% |  |  |
